The subject of data set [1] is 3T3-L1. Description: Anti-adipogenic activity against mouse 3T3-L1 cells assessed as decrease in triglyceride level at 1 to 100 uM by Oil Red O staining based analysis. Type of data set: functional, cell-based. The settings on record: dose 1-100 µM.
Data set [2] concerns 3T3-L1. Description: Cytotoxicity against mouse 3T3-L1 cells assessed as cell viability incubated for 48 hrs by MTT assay. The format is toxicity, cell-based. The settings on record: 3t3-l1, 48 h. (Tetrazolium assays rely on reduction of a dye to a coloured formazan, in cell work by metabolically active cells.)
For data set [3], the system named is 3T3-L1. The data set can be described thus: Anti-adipogenic activity against mouse 3T3-L1 cells assessed as decrease in triglyceride level by Oil Red O staining based analysis. The format is functional, cell-based.

The structures appear in SMILES notation. Activity calls are given as the source filed them. The calls are words filed in the database; no cut-off is given here. Starred links: 1 amine or outer side, 2 acyl side, 3 side chain; linkers in the order of their positions; H or OH if unused. Non-standard residues stand in square brackets, D forms with d. Residues, ends and D or L forms follow the SMILES beside them. X1 = C[C@@]12Nc3ccccc3[C@]1(O)C[C@@H](C(=O)[*:2])N2[*:1]; Kyn = Nc1ccccc1C(=O)C[C@H](N)C(=O)O

In the case of `CC(C)C[C@@H]1NC(=O)[C@@H]2CCCN2C(=O)[C@H](Cc2ccccc2)NC(=O)[C@@H]2CCCN2C(=O)[C@H](C)NC(=O)[C@@H]2CCCN2C(=O)[C@H](Cc2ccc(O)cc2)NC1=O` (cyclo(APFPLYP)), in the data set on 3T3-L1 [1], the result was Active. For the same compound, the Activity entry in the data set on 3T3-L1 [2] is recorded as “Non-Toxic”.
Taken in the same sequence, the figures for `CC(C)C[C@@H]1NC(=O)[C@@H]2CCCN2C(=O)[C@H](Cc2ccccc2)NC(=O)[C@@H]2CCCN2C(=O)[C@H](C)NC(=O)[C@H](Cc2ccc(O)cc2)NC(=O)[C@@H]2CCCN2C(=O)[C@H](Cc2ccc(O)cc2)NC1=O` (cyclo(APFPLYPY)) were “Active” and “Non-Toxic”.
With `CC[C@H](C)[C@@H]1NC(=O)[C@H](Cc2c[nH]c3ccccc23)NC(=O)[C@@H]2CCCN2C(=O)CNC(=O)[C@H](Cc2ccc(O)cc2)NC(=O)CNC(=O)[C@H](C(C)C)NC(=O)[C@H](C)NC1=O` (cyclo(AVGYGPWI)), in the data set with 3T3-L1 [1], the result was Active. Also, in the data set with 3T3-L1 [2], the Activity result is given as “Non-Toxic”.
What is called EC50 is the concentration giving half of the maximal effect. Take `CC(C)C[C@@H]1NC(=O)[C@H](Cc2ccc(O)cc2)NC(=O)[C@@H]2CCCN2C(=O)[C@H](Cc2ccccc2)NC(=O)CNC(=O)[C@@H]2CCCN2C1=O` (cyclo(FPYLPG)): in the data set on 3T3-L1 [3], the EC50 came out at 1170 nM. The result in the data set on 3T3-L1 [1] was Active. Besides, in the data set with 3T3-L1 [2], the Activity entry is reported as “Non-Toxic”.
Regarding `O=C1CNC(=O)[C@@H]2CCCN2C(=O)[C@H](Cc2c[nH]c3ccccc23)NC(=O)[C@H](Cc2ccc(O)cc2)NC(=O)[C@@H]2CCCN2C(=O)[C@H](Cc2ccccc2)N1` (cyclo(FPYWPG)), the result in the data set on 3T3-L1 [1] was Active. Further, the Activity entry in the data set with 3T3-L1 [2] is “Non-Toxic”.
Taken in the same sequence, the figures for `Nc1ccccc1C(=O)C[C@@H]1NC(=O)[C@H](Cc2ccc(O)cc2)NC(=O)[C@@H]2CCCN2C(=O)[C@H](Cc2ccccc2)NC(=O)CNC(=O)[C@@H]2CCCN2C1=O` (cyclo(FPY[Kyn]PG)) were “Active” and “Non-Toxic”.
The corresponding values for `C[C@@]12Nc3ccccc3[C@]1(O)C[C@H]1C(=O)N3CCC[C@H]3C(=O)NCC(=O)N[C@@H](Cc3ccccc3)C(=O)N3CCC[C@H]3C(=O)N[C@@H](Cc3ccc(O)cc3)C(=O)N12` (cyclo(FPY[X1]PG)) are “Active” and “Non-Toxic”.
Taken in the same sequence, the figures for `O=C1CNC(=O)[C@@H]2CCCN2C(=O)[C@H](Cc2c[nH]c3ccccc23)NC(=O)[C@H](Cc2ccc(O)cc2)NC(=O)[C@@H]2CCCN2C(=O)CN1` (cyclo(GGPYWP)) were “Active” and “Non-Toxic”.
Turning to `CC(C)C[C@@H]1NC(=O)[C@H](CO)NC(=O)[C@@H]2CCCN2C(=O)[C@H](CC(C)C)NC(=O)[C@@H]2CCCN2C(=O)[C@H](CO)NC(=O)CNC(=O)[C@H](Cc2c[nH]c3ccccc23)NC1=O` (cyclo(GSPLPSLW)), the result in the data set with 3T3-L1 [1] was Active. Besides, the Activity result in the data set on 3T3-L1 [2] is reported as “Non-Toxic”.
The corresponding values for `CC(C)C[C@@H]1NC(=O)[C@@H]2CCCN2C(=O)[C@H](CO)NC(=O)CNC(=O)[C@@H]2C[C@@]3(O)c4ccccc4N[C@@]3(C)N2C(=O)[C@H](CC(C)C)NC(=O)[C@H](CO)NC(=O)[C@@H]2CCCN2C1=O` (cyclo(GSPLPSL[X1])) are “Active” and “Non-Toxic”.

For the origin of these results see ChEMBL document CHEMBL5634185, “Drymariamides A-J, Antiadipogenic Cyclopeptides Incorporating Noncanonical Amino Acids from Drymaria cordata” (J Nat Prod, 2024).
